Results published in patent US20160250213A1, “FORMULATIONS OF AZAINDOLE COMPOUNDS” (priority 2013, published 2016).
“And” between values parts separate entries of the source, which are not always exact repeats. Identical values can stand only once. Like-named read-outs stand apart in the source and are kept apart here. Marks after values point to notes of the source that are not given here.

Legend:
[1] = system: Influenza A/California/04/2009 (pndH1N1) virus; format: in vivo, BALB/c mice
[2] = system: Influenza A/Victoria/3/75 (H3N2) virus; format: in vivo, BALB/c mice
A/FM/1/47 (H1N1) = assay: microbe, parasite or virus in culture; format: cell-based; conditions: Influenza A virus, MDCK, read-out: Cell Protection Assay EC50 ± SD
A/Mal/302/54 (H1N1) = assay: microbe, parasite or virus in culture; format: cell-based; conditions: Influenza A virus, MDCK, read-out: Cell Protection Assay EC50 ± SD
[3] = system: A/Chelyabinsk/1/2006 (H1N1); assay: microbe, parasite or virus in culture; format: cell-based; conditions: Influenza A virus, MDCK, read-out: Cell Protection Assay EC50 ± SD
A/Florida/3/2006 (H1N1) = assay: microbe, parasite or virus in culture; format: cell-based; conditions: Influenza A virus, MDCK, read-out: Cell Protection Assay EC50 ± SD
A/Georgia/17/2006 (H1N1) = assay: microbe, parasite or virus in culture; format: cell-based; conditions: Influenza A virus, MDCK, read-out: Cell Protection Assay EC50 ± SD
A/Missouri/3/2006 (H1N1) = assay: microbe, parasite or virus in culture; format: cell-based; conditions: Influenza A virus, MDCK, read-out: Cell Protection Assay EC50 ± SD
A/Aichi/2/68 (H3N2) = assay: microbe, parasite or virus in culture; format: cell-based; conditions: Influenza A virus, MDCK, read-out: Cell Protection Assay EC50 ± SD
A/Victoria/3/75 (H3N2) = assay: microbe, parasite or virus in culture; format: cell-based; conditions: Influenza A virus, MDCK, read-out: Cell Protection Assay EC50 ± SD
A/Hawaii/2/2006 (H3N2) = assay: microbe, parasite or virus in culture; format: cell-based; conditions: Influenza A virus, MDCK, read-out: Cell Protection Assay EC50 ± SD
A/New Jersey/8/76 (H1N1) = assay: microbe, parasite or virus in culture; format: cell-based; conditions: Influenza A virus, H1N1, MDCK, read-out: Cell Protection Assay EC50 ± SD
[4] = system: A/Virginia/ATCC2/2009 (H1N1); assay: microbe, parasite or virus in culture; format: cell-based; conditions: Influenza A virus, MDCK, read-out: Cell Protection Assay EC50 ± SD
[5] = system: A/Virginia/ATCC3/2009 (H1N1); assay: microbe, parasite or virus in culture; format: cell-based; conditions: Influenza A virus, MDCK, read-out: Cell Protection Assay EC50 ± SD
A/Swine/1976/31 (H1N1) = assay: microbe, parasite or virus in culture; format: cell-based; conditions: Influenza A virus, H1N1, MDCK, in Sus scrofa, read-out: Cell Protection Assay EC50 ± SD
[6] = system: A/Equine/2/Miami/63 (H3N8); assay: microbe, parasite or virus in culture; format: cell-based; conditions: Influenza A virus, H3N8, MDCK, read-out: Cell Protection Assay EC50 ± SD
B/Lee/40 = assay: microbe, parasite or virus in culture; format: cell-based; conditions: Influenza B virus, MDCK, read-out: Cell Protection Assay EC50 ± SD
B/Russia/69 = assay: microbe, parasite or virus in culture; format: cell-based; conditions: Influenza B virus, MDCK, read-out: Cell Protection Assay EC50 ± SD
[7] = system: influenza A/Wisconsin/67/2005 (H3N2) challenge strain virus; format: in vivo, humans (healthy volunteers)
[8] = single doses up to 1600 mg and multiple doses up to 800 mg daily for 10 days
[9] = 1 mg/kg p.o. twice a day for 10 days starting 2 hours prior to virus exposure
[10] = 3 mg/kg p.o. twice a day for 10 days starting 2 hours prior to virus exposure
[11] = 10 mg/kg p.o. twice a day for 10 days starting 2 hours prior to virus exposure
[12] = 900 mg Day 1, 600 mg Days 2-5, […]
[13] = 1200 mg Day 1, 600 mg Days 2-5, […]
[14] = pooled Compound (1) dose groups, […]

O=C(O)[C@H]1C2CCC(CC2)C1Nc1nc(-c2c[nH]c3ncc(F)cc23)ncc1F (some centres unmarked) [Compound (1)]
Mean Lung Parameters (Day 6): Score (hemorrhage, 0 to 4) [1, 9]: 0.6
Mean Lung Parameters (Day 6): Virus Titer [1, 9]: 5.5 Log10 CCID50/g
Mean Lung Parameters (Day 6): Weight [1, 9]: 246 mg
Mean Lung Parameters (Day 6): Score (hemorrhage, 0 to 4) [1, 10]: 0.0
Mean Lung Parameters (Day 6): Virus Titer [1, 10]: 3.1 Log10 CCID50/g
Mean Lung Parameters (Day 6): Weight [1, 10]: 123 mg
Mean Lung Parameters (Day 6): Score (hemorrhage, 0 to 4) [1, 11]: 0.2
Mean Lung Parameters (Day 6): Virus Titer [1, 11]: <2.6^d*** Log10 CCID50/g
Mean Lung Parameters (Day 6): Weight [1, 11]: 132 mg
MDD ± SD (mean day of death of mice that died on or before day 21) [2, 9]: 9.8 ± 1.9
Mean Lung Parameters (Day 6): Score (hemorrhage, 0 to 4) [2, 9]: 3.2 ± 0.3^e
Mean Lung Parameters (Day 6): Virus Titer [2, 9]: 7.3 ± 0.3 Log10 CCID50/g
Mean Lung Parameters (Day 6): Weight [2, 9]: 274 ± 49 mg
Survivors/Total [2, 9]: 4/10
Mean Lung Parameters (Day 6): Score (hemorrhage, 0 to 4) [2, 10]: 3.3 ± 0.6^e
Mean Lung Parameters (Day 6): Virus Titer [2, 10]: 7.2 ± 0.2 Log10 CCID50/g
Mean Lung Parameters (Day 6): Weight [2, 10]: 260 ± 25 mg
Mean Lung Parameters (Day 6): Score (hemorrhage, 0 to 4) [2, 11]: 0.1 ± 0.2^d
Mean Lung Parameters (Day 6): Virus Titer [2, 11]: 6.1 ± 0.5 Log10 CCID50/g
Mean Lung Parameters (Day 6): Weight [2, 11]: 164 ± 11 mg
EC50 (A/FM/1/47 (H1N1)): 570 ± 36 pM
EC50 (A/Mal/302/54 (H1N1)): 570 ± 55 pM
EC50 [3]: 700 ± 490 pM
EC50 (A/Florida/3/2006 (H1N1)): 920 ± 1500 pM
EC50 (A/Georgia/17/2006 (H1N1)): 130 ± 48 pM
EC50 (A/Missouri/3/2006 (H1N1)): 210 ± 60 pM
EC50 (A/Aichi/2/68 (H3N2)): 1400 ± 1100 pM
EC50 (A/Victoria/3/75 (H3N2)): 1300 ± 630 pM
EC50 (A/Hawaii/2/2006 (H3N2)): 1400 ± 910 pM
EC50 (A/New Jersey/8/76 (H1N1)): 200 ± 96 pM
EC50 [4]: 1900 ± 3000 pM
EC50 [5]: 1900 ± 3200 pM
EC50 (A/Swine/1976/31 (H1N1)): 470 ± 110 pM
EC50 [6]: 500 ± 65 pM
EC50 (B/Lee/40): > 10000 pM
EC50 (B/Russia/69): > 10000 pM
Serology, Sero-conversion (%) [7, 12]: (68%)
Serology, Sero-conversion, n/N [7, 12]: 13/19
Serology, Sero-conversion (%) [7, 13]: (67%)
Serology, Sero-conversion, n/N [7, 13]: 12/18
Serology, Sero-conversion, n/N ([7]; in vivo): 11/16 and 9/19
Serology, Sero-conversion (%) [7, 14]: (63%)
Serology, Sero-conversion, n/N [7, 14]: 45/72
liver function abnormalities, serum phosphate decreases [8]: Neither liver function abnormalities nor serum phosphate decreases were observed
